Experimental data reported in patent US11401278B2, “Macrocyclic indole derivatives” (The Broad Institute, Inc., priority 2017, dated 2022).
Structures can show the parent of a compound that is named as a salt. Where two headings read alike, the source gives them in different places.

Tests used:
[1] = system: SUDHL5; test: Antiproliferation assay (Assay 7), SUDHL5; assay type: cell-based; conditions: CellTiter-Glo, median, read-out: Antiproli SUDHL5 [M] (median) IC50
Experimental: (§1) Assessment of the Anti-Proliferative Effect of Compounds in Different Cell Lines
(§2) The impact of compounds on the proliferation of different cell lines was assessed using the CellTiter-Glo® Luminescent Cell Viability reagent from Promega (G7573).
(§3) In parallel, cells were plated in a reference (day 0) plate for time zero determination.
(§4) Rim wells were excluded. The cells were incubated for 72 hours in a humidified incubator at 37° C. The day 0 plate was measured by adding 30 μL/well of CTG solution (CellTiter-Glo® Luminescent Cell Viability reagent, Promega G7573) to time zero wells in the reference plate followed by a 10 minutes incubation and luminescence reading at 0.1 ms. using the PHERAstar FS microplate reader (BMG Labtech).
(§5) After 72 hours incubation, the treated plates were measured in the same way as the day 0 plate mentioned above.

[2] = system: MV-4-11; test: Antiproliferation assay (Assay 7), MV-4-11; assay type: cell-based; conditions: Homo sapiens, MV4-11, 72 h, CellTiter-Glo, several values per example, read-out: Antiproli MV-4-11 [M] IC50
Experimental: as §1, §2, §3, §4, §5

[3] = target: MCL-1 (Homo sapiens (Human), UniProt Q07820, K194A/K197A/R201A); test: Protein-protein interaction assay MCL-1/Noxa BH3 peptide (MCL-1 assay, TR-FRET); assay type: binding; conditions: MBP-MCL-1 / Noxa BH3 peptide, median
Experimental: Protein-Protein Interaction Assay: MCL-1/Noxa BH3 Peptide (MCL-1 Assay)
The dose-dependent inhibition by the compounds described in this invention of the interaction between MCL-1 and the BH3 domain of Noxa (both human) was determined using a steady state binding competition assay with time-resolved fluorescence energy transfer (TR-FRET) readout. For that purpose MCL-1 (amino acids 173-329, N-terminal fused to Maltose Binding Protein (MBP) SEQ ID 1) and a synthetic Noxa BH3-derived peptide of sequence Biotin-PEG2-PEG2-PAELEVE-Nva-ATQLRRFGDKLNFRQKLL-amide (SEQ ID 2) served as protein receptor and tracer ligand respectively. The MBP-MCL-1 was purchased from Beryllium (Bedford, Mass., USA). The expression and purification of this protein construct has been described elsewhere (DOI:10.1371/journal.pone.0125010). The Noxa BH3-derived peptide can be obtained from e.g. Biosyntan (Berlin, Germany).
In the assay 11 different concentrations of each compound (0.1 nM, 0.33 nM, 1.1 nM, 3.8 nM, 13 nM, 44 nM, 0.15 μM, 0.51 μM, 1.7 μM, 5.9 μM and 20 μM) were typically measured as duplicates in the same microtiter plate. For that, 100-fold concentrated DMSO solutions were prepared by serial dilutions (1:3.4) of a 2 mM stock solution in a clear, 384-well microtiter plate (Greiner Bio-One, Frickenhausen, Germany). From there, 50 nl were transferred in a dark test plate (Greiner Bio-One, Frickenhausen, Germany). The assay was initiated by addition of 2 μl of a 2.5-fold concentrated MBP-MCL-1 solution (usually for a 1 nM end concentration in 5 μl reaction volume) in aqueous assay buffer [50 mM Tris/HCl pH 7, 100 mM sodium chloride (NaCl), 50 mM potassium fluoride (KF), 0.005% Tween-20, 2 mM DTT, 0.1% bovine gamma globulin (BGG)] to the compounds in the assay plate. This was followed by a 10-minute incubation step at 22° C. for pre-equilibration of the putative complex between MBP-MCL-1 and the compounds. After that, 3 μl of a 1.67-fold concentrated solution (in assay buffer) consisting of Noxa BH3-derived peptide (1 nM end concentration) and TR-FRET detection reagents [1.67 nM anti-MBP-Eu cryptate and 1.67 nM streptavidin-XL665 (both from Cisbio Bioassays, Codolet, France)], were added.
The mixture was incubated in the dark for one hour at 22° C. and then overnight at 4° C. The formation of MCL-1/Noxa complexes was determined by measuring the resonance energy transfer of the anti-MBP-Eu-cryptate antibody to the streptavidin-XL665 present in the reaction. For that purpose, the fluorescence emission at 620 nm and 665 nm after excitation at 330-350 nm was measured in a TR-FRET measuring instrument, for instance a Rubystar or a Pherastar (both from BMG Lab Technologies, Offenburg, Germany) or a Viewlux (Perkin-Elmer). The ratio of the emission at 665 nm and at 622 nm was used as indicator of the amount of MCL-1/NOXA complexes present.
The resulting data (ratio) were normalized, taking 0% inhibition as the mean value of control measurements (usually 32 data points) where all reagents were included. In this case 50 nl DMSO were used instead of compounds. A 100% inhibition corresponded to the mean value of control measurements (usually 32 data points) where all reagents except MCL-1 were included. IC50 values were determined by regression analysis based on a 4 parameter equation (minimum, maximum, IC50, Hill; Y=Max+(Min−Max)/(1+(X/IC50)^HiII) using the Screener Software (Genedata).

[4] = system: AMO-1; test: Antiproliferation assay (Assay 7), AMO-1; assay type: cell-based; conditions: CellTiter-Glo, several values per example, read-out: Antiproli AMO-1 [M] IC50
Experimental: as §1, §2, §3, §4, §5

[5] = system: SUDHL10; test: Induction of caspase-3/7 activity (Assay 4), SUDHL10; assay type: cell-based; conditions: caspase-3/7 induction, median
Experimental: (§6) Cellular Assays Assay 4 Induction of Caspase-3/7 Activity Upon Treatment of Cells with Selected Compounds
(§7) The BH3-domain of MCL-1 sequesters pro-apoptotic proteins, thereby inhibiting apoptosis. In contrast, MCL-1 inhibitors are expected to antagonize this effect leading to an increase in apoptosis, which can be determined by measuring the activity of caspase-3/7.
(§8) The activity of caspase-3/7 was determined in DLBCL (Diffuse large B-cell lymphoma) cell lines (SUDHL5 and SUDHL10) upon treatment with different compounds, using the Caspase-Glo® 3/7 reagent from Promega (G8092).
(§9) Rim wells were excluded. The cells were incubated for 3 hours in a humidified incubator at 37° C.
(§10) For the evaluation of the results, the background measured with “medium-only” was subtracted from all other values. […] The Bella DRC Master Sheet was used to calculate EC50s, with fixed C0=1 and CI=plateau/max induction for the reference compound.

[6] = system: SUDHL10; test: Induction of cytotoxicity (Assay 6), SUDHL10; conditions: read-out: Cytotox SUDHL10 [M] (median) IC50, CellTiter-Glo, 5 hours, SUDHL10
[7] = system: SUDHL5; test: Induction of caspase-3/7 activity (Assay 4), SUDHL5; assay type: cell-based; conditions: caspase-3/7 induction, median
Experimental: as §6, §7, §8, §9, §10

[8] = system: SUDHL5; test: Induction of cytotoxicity (Assay 6), SUDHL5; conditions: read-out: Cytotox SUDHL5 [M] (median) IC50, CellTiter-Glo, 5 hours, SUDHL5
[9] = system: HMC-1-8; test: Antiproliferation assay (Assay 7), HMC-1-8; assay type: cell-based; conditions: CellTiter-Glo, 72 hours, several values per example, read-out: Antiproli HMC-1-8 [M] IC50
Experimental: as §1, §2, §3, §4, §5

Sequence of MCL-1 (Q07820 whole entry K194A/K197A/R201A, looked up): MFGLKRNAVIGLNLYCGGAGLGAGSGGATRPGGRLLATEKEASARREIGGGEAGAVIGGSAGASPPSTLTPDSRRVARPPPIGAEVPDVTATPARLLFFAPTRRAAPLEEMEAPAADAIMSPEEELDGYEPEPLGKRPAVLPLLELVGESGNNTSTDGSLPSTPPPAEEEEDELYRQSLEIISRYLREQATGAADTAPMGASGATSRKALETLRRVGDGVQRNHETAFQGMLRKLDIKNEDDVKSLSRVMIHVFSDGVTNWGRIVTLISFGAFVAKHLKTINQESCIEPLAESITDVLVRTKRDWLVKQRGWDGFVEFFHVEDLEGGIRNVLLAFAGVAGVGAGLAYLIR

IC50 ([1]; Homo sapiens, SU-DHL-5, 72 h) [M] | IC50 [2] [M] | IC50 [3] [nM] | EC50 ([5]; Homo sapiens, SU-DHL10, 3 h) [nM] | EC50 ([7]; Homo sapiens, SU-DHL-5, 3 h) [nM] | IC50 ([1]; 72 hours) [M] | EC50 ([5]; 3 hours) [nM] | EC50 ([7]; 3 hours) [nM] | Structure (SMILES) | IC50 ([4]; Homo sapiens, AMO1, 72 h) [M] | IC50 ([6]; Homo sapiens, SU-DHL10, 5 h) [M] | IC50 ([8]; Homo sapiens, SU-DHL-5, 5 h) [M] | IC50 [6] [M] | IC50 [8] [M] | IC50 ([4]; 72 hours) [M] | IC50 [9] [M]
3.1e-07 | 8.39e-07 | 1.8 | 610 | 420 |  |  |  | CCc1c2c(nn1C)CN(C)S(=O)(=O)CCCn1c(C(=O)O)c(CCCOc3cccc4cc(F)ccc34)c3ccc(Cl)c-2c31 (racemic) [Example 19, (rac)-13-Chloro-12-ethyl-1-(3-((6-fluoronaphthalen-1-yl)oxy)propyl)-8,11-dimethyl-5,6,9,11-tetrahydro-4H,8H-pyrazolo[3′,4′:4,5][1]thia[2,8]diazacycloundecino[6,7,8-hi]indole-2-carboxylic acid 7,7-dioxide] | 1.5e-06 | 8.5e-07 | 4.6e-07 |  |  |  | 
 |  | 1.5 | 650 | 250 |  |  |  | CCc1c2c(nn1C)C(N1CCOCC1)CCN(C)S(=O)(=O)CCCn1c(C(=O)O)c(CCCOc3cccc4cc(F)ccc34)c3ccc(Cl)c-2c31 (racemic) [Example 69, (rac)-15-chloro-14-ethyl-1-(3-((6-fluoronaphthalen-1-yl)oxy)propyl)-8,13-dimethyl-11-(rac)-morpholino-5,6,9,10,11,13-hexahydro-4H,8H-pyrazolo[3′,4′:6,7][1]thia[2,10]diazacyclotridecino[8,9,10-hi]indole-2-carboxylic acid 7,7-dioxide (Mixture of Stereoisomers)] |  | 1.3e-06 | 3.1e-07 |  |  |  | 
 |  |  |  |  |  |  |  | Cc1c2c(nn1C)CN(C)S(=O)(=O)CCCn1c(C(=O)O)c(CCCOc3cccc4ccccc34)c3cccc-2c31 (single isomer, unassigned; enantiomer 1) [Example 11, (+)-2,3,14-Trimethyl-7-[3-(1-naphthyloxy)propyl]-11,12,14,15-tetrahydro-2H,10H-pyrazolo[3′,4′:4,5][1,2,8]thiadiazacycloundecino[6,7,8-hi]indole-8-carboxylic acid 13,13-dioxide-N-ethylethanamine Salt (Enantiomer 1)] |  |  |  | 3.7e-06 | 1.6e-06 |  | 
 |  | 86 |  |  | 4e-06 | 4400 | 2600 | CCc1c2c(nn1C)C(N1CCOCC1)CCN(C)S(=O)(=O)CCCn1c(C(=O)O)c(CCCOc3cccc4cc(F)ccc34)c3ccc(Cl)c-2c31 (single isomer, unassigned; enantiomer 1) [Example 70, (+)-4-chloro-3-ethyl-7-{3-[(6-fluoro-1-naphthyl)oxy]propyl}-2,14-dimethyl-17-(morpholin-4-yl)-11,12,14,15,16,17-hexahydro-2H,10H-pyrazolo[3′,4′:6,7][1,2,10]thiadiazacyclotridecino[8,9,10-hi]indole-8-carboxylic acid 13,13-dioxide trifluoroacetate salt (Enantiomer 1)] |  |  |  | 4.7e-06 | 2.6e-06 | 7.3e-06 | 1.5e-05
 |  |  |  |  |  |  |  | Cc1c2c(nn1C)CN(C)S(=O)(=O)CCCn1c(C(=O)O)c(CCCOc3cccc4ccccc34)c3cccc-2c31 (single isomer, unassigned; enantiomer 2) [Example 12, (−)-2,3,14-Trimethyl-7-[3-(1-naphthyloxy)propyl]-11,12,14,15-tetrahydro-2H,10H-pyrazolo[3′,4′:4,5][1,2,8]thiadiazacycloundecino[6,7,8-hi]indole-8-carboxylic acid 13,13-dioxide-N-ethylethanamine Salt (Enantiomer 2)] |  |  |  | 2.7e-05 | 2.7e-05 |  | 
 |  | 28 |  |  | 1.5e-05 | 32000 | 15000 | CCc1c2c(nn1C)CN(CC)S(=O)(=O)CCCn1c(C(=O)O)c(CCCOc3cccc4cc(F)ccc34)c3ccc(Cl)c-2c31 (single isomer, unassigned; enantiomer 2) [Example 58, (−)-4-chloro-3,14-diethyl-7-{3-[(6-fluoronaphthalen-1-yl)oxy]propyl}-2-methyl-13,13-dioxo-10,11,12,13,14,15-hexahydro-2H-13lambda^6-pyrazolo[3′,4′:4,5][1,2,8]thiadiazacycloundecino[6,7,8-hi]indole-8-carboxylic acid N-ethylethanamine Salt (Enantiomer 2)] |  |  |  |  | 1.2e-05 | > 3.3e-05 | 1.5e-05
 |  | 0.8 |  |  | 1.3e-07 | 140 | 71 | CCc1c2c(nn1C)C(N1CCOCC1)CCN(C)S(=O)(=O)CCCn1c(C(=O)O)c(CCCOc3cccc4cc(F)ccc34)c3ccc(Cl)c-2c31 (single isomer, unassigned; enantiomer 2) [Example 71, (−)-4-chloro-3-ethyl-7-{3-[(6-fluoro-1-naphthyl)oxy]propyl}-2,14-dimethyl-17-(morpholin-4-yl)-11,12,14,15,16,17-hexahydro-2H,10H-pyrazolo[3′,4′:6,7][1,2,10]thiadiazacyclotridecino[8,9,10-hi]indole-8-carboxylic acid 13,13-dioxide trifluoroacetate salt (Enantiomer 2)] |  |  |  | 1.5e-07 | 1e-07 |  | 3.2e-06
